Where “and” joins values, the source holds several entries; their conditions need not be identical. Equal entries are not always repeated. After the bases stand the sugars from the 5' end (letter, count) and the backbone: PS all phosphorothioate, else s phosphorothioate and o phosphodiester by linkage. Methylation of C is not given here. e = 2'-O-(2-methoxyethyl) (MOE); k = constrained ethyl (cEt); d = 2'-deoxy (DNA)

One data set has as its target IRF4. The conditions noted are these: ASO, MM.1R, 0.0625 µM.
“TGGGATTATATACTGG (sugars kkddddddddddkeke, PS)”: the target mRNA inhibition worked out at 21%.

For “TGTGTATTACTCTTAG (sugars kkdddddddddkekek, PS)”, the target mRNA inhibition was determined as 19%.

Take TTGGTTGGCTGGTCTT (sugars k3 d10 k3, PS): the target mRNA inhibition was 40%.

The data set is the same for the next values; noted with them: ASO, MM.1R, 0.074 µM.
With TGCTTATCAATGCCAA (sugars k3 d10 k3, PS), the target mRNA inhibition worked out at 12%.

The data set is the same for the next values; noted with them: ASO, MM.1R, 0.222 µM.
On to TGCTTATCAATGCCAA (sugars k3 d10 k3, PS), for which the target mRNA inhibition is 12%.

The same data set, now with this note: ASO, MM.1R, 0.25 µM.
Consider “TGGGATTATATACTGG (sugars kkddddddddddkeke, PS)”, for which the target mRNA inhibition turned out to be 43%.

As for “TGTGTATTACTCTTAG (sugars kkdddddddddkekek, PS)”, the target mRNA inhibition amounted to 32%.

Take TTGGTTGGCTGGTCTT (sugars k3 d10 k3, PS): the target mRNA inhibition worked out at 58%.

The data set is the same for the next values; noted with them: ASO, MM.1R, 0.666 µM.
For the sequence TGCTTATCAATGCCAA (sugars k3 d10 k3, PS), the target mRNA inhibition was determined as 16%.

The data set is the same for the next values; noted with them: ASO, MM.1R, 1 µM.
Turning to TGCTATTAAACTGATT (sugars k3 d10 k3, PS), the target mRNA inhibition is -3%.

For the sequence TGCTGCAAATCCCTCT (sugars k3 d10 k3, PS), the target mRNA inhibition was 21%.

For the sequence TGCTTATCAATGCCAA (sugars k3 d10 k3, PS), the target mRNA inhibition was 35% and 31%.

Take “TGCTTGAGGTTTTCCT (sugars e1 k2 d9 k2 e2, PS)”: the target mRNA inhibition came to 35%.

For “TGCTTGAGGTTTTCCT (sugars k3 d9 k3 e1, PS)”, the target mRNA inhibition was 46%.

With “TGCTTGAGGTTTTCCT (sugars kdddddddddkekeke, PS)”, the target mRNA inhibition came out at 9%.

Regarding “TGCTTGAGGTTTTCCT (sugars kkkddddddddkekek, PS)”, the target mRNA inhibition was determined as 27%.

As to TGGAGAAGTCCCGTGG (sugars k3 d10 k3, PS), the target mRNA inhibition was -9%.

On to TGGGATGCCACCATCC (sugars k3 d10 k3, PS), for which the target mRNA inhibition is -2%.

For “TGGGATTATATACTGG (sugars kkddddddddddkeke, PS)”, the target mRNA inhibition is 68% and 60%.

Take TGGGTATTTATAACCG (sugars k3 d10 k3, PS): the target mRNA inhibition worked out at 4%.

For “TGGTTGGCTGGTCTTT (sugars kkdddddddddkdkdk, PS)”, the target mRNA inhibition was found to be 51%.

Turning to TGTAACGCACCCGCAG (sugars k3 d10 k3, PS), the target mRNA inhibition is -4%.

On to “TGTAGTATGAGAAACG (sugars kddddddddddkekek, PS)”, for which the target mRNA inhibition was 7%.

Consider “TGTAGTATGAGAAACG (sugars kdddddddddkekeke, PS)”, for which the target mRNA inhibition worked out at 14%.

Turning to “TGTAGTATGAGAAACG (sugars kkdddddddddkekek, PS)”, the target mRNA inhibition was 12%.

As for “TGTAGTATGAGAAACG (sugars kkkdddddddddkeke, PS)”, the target mRNA inhibition is 29%.

Consider “TGTAGTATGAGAAACG (sugars kkkddddddddkekek, PS)”, for which the target mRNA inhibition was 23%.

With TGTATCATGCATACCA (sugars k3 d10 k3, PS), the target mRNA inhibition worked out at 3%.

Consider TGTCACCTGGCAACCT (sugars k3 d10 k3, PS), for which the target mRNA inhibition is -4%.

In the case of “TGTGATAGCTGAGCTG (sugars kkddddddddddkeke, PS)”, the target mRNA inhibition was 16%.

On to “TGTGATAGCTGAGCTG (sugars kkdddddddddkekek, PS)”, for which the target mRNA inhibition worked out at 17%.

For TGTGCAAAACCAGTAC (sugars k3 d10 k3, PS), the target mRNA inhibition was -20%.

“TGTGTATTACTCTTAG (sugars kddddddddddkekek, PS)”: the target mRNA inhibition is 58% and 56%.

With “TGTGTATTACTCTTAG (sugars kdddddddddkekeke, PS)”, the target mRNA inhibition is 32% and 52%.

Regarding “TGTTACCGATGCTTCA (sugars kkddddddddddkeke, PS)”, the target mRNA inhibition was 25% and 42%.

For the sequence “TGTTACCGATGCTTCA (sugars kkdddddddddkekek, PS)”, the target mRNA inhibition was 28% and 21%.

In the case of “TTATATACTGGTTGGT (sugars kkddddddddddkeke, PS)”, the target mRNA inhibition stood at 47%.

Take “TTATGTTAGCCAATTC (sugars kdddddddddkekeke, PS)”: the target mRNA inhibition was 9% and 2%.

Take “TTCATGTAAAGTCTGC (sugars k2 d9 e3 k2, PS)”: the target mRNA inhibition was 27% and 35%.

For the sequence “TTCATGTAAAGTCTGC (sugars kdddddddddkekeke, PS)”, the target mRNA inhibition is 9% and 3%.

In the case of “TTCATGTAAAGTCTGC (sugars kkdddddddddekeke, PS)”, the target mRNA inhibition was 32% and 39%.

On to “TTCATGTAAAGTCTGC (sugars kkdddddddddkdkdk, PS)”, for which the target mRNA inhibition is 14% and 35%.

For the sequence TTCTTTATAGTAGGTA (sugars k3 d10 k3, PS), the target mRNA inhibition stood at 15%.

Take TTGATGTGATAGCTGA (sugars k3 d10 k3, PS): the target mRNA inhibition was 55%.

“TTGATGTGATAGCTGA (sugars kkddddddddddkeke, PS)”: the target mRNA inhibition is 11%.

On to TTGGTACGGGATTTCC (sugars k3 d10 k3, PS), for which the target mRNA inhibition amounted to 34%.

For the sequence TTGGTTGGCTGGTCTT (sugars k3 d10 k3, PS), the target mRNA inhibition was 76% and 72%.

In the case of “TTGGTTGGCTGGTCTT (sugars kkddddddddddkeke, PS)”, the target mRNA inhibition came out at 27%.

As to “TTGGTTGGCTGGTCTT (sugars kkdddddddddekeke, PS)”, the target mRNA inhibition stood at 34%.

As for TTTAAAATATCGCCCA (sugars k3 d10 k3, PS), the target mRNA inhibition is -1%.

In the case of TTTATCATCCGAAAAG (sugars k3 d10 k3, PS), the target mRNA inhibition came to 7%.

For the sequence “TTTATGTTAGCCAATT (sugars k2 d9 e3 k2, PS)”, the target mRNA inhibition is 3% and 21%.

Staying with this data set, now noted: ASO, MM.1R, 2 µM.
As to TGCTTATCAATGCCAA (sugars k3 d10 k3, PS), the target mRNA inhibition came out at 50%.

The data set is the same for the next values; noted with them: ASO, MM.1R, 4 µM.
As to TGCTTATCAATGCCAA (sugars k3 d10 k3, PS), the target mRNA inhibition is 69% and 66%.

In the case of “TGGGATTATATACTGG (sugars kkddddddddddkeke, PS)”, the target mRNA inhibition was determined as 83%.

With “TGTGTATTACTCTTAG (sugars kkdddddddddkekek, PS)”, the target mRNA inhibition was determined as 85%.

Consider TTGGTTGGCTGGTCTT (sugars k3 d10 k3, PS), for which the target mRNA inhibition worked out at 89%.

The data set is the same for the next values; noted with them: ASO, SK-MEL-28, 0.185 µM.
Take TGGCTAGCAGAGGTTC (sugars k3 d10 k3, PS): the target mRNA inhibition stood at 1%.

The same data set, now with this note: ASO, SK-MEL-28, 4 µM.
For the sequence TGCTGATCCTGGGAGT (sugars k3 d10 k3, PS), the target mRNA inhibition stood at 79%.

As to TGCTTATCAATGCCAA (sugars k3 d10 k3, PS), the target mRNA inhibition is 70%.

For the sequence TGCTTCAACACACTGT (sugars k3 d10 k3, PS), the target mRNA inhibition is 3%.

Take TGCTTTGGGCACCAAA (sugars k3 d10 k3, PS): the target mRNA inhibition stood at 52%.

Consider TGGAAACTCCTCTCCA (sugars k3 d10 k3, PS), for which the target mRNA inhibition came to 16%.

As for TGGACATCTGCGGGTC (sugars k3 d10 k3, PS), the target mRNA inhibition came out at 44%.

With TGGACTCGGAGCTGAG (sugars k3 d10 k3, PS), the target mRNA inhibition was determined as 24%.

Turning to TGGCACCAAAAGTACC (sugars k3 d10 k3, PS), the target mRNA inhibition worked out at 34%.

In the case of TGGCACCAAGGTCCAG (sugars k3 d10 k3, PS), the target mRNA inhibition was determined as 1%.

On to TGGCCTTCCTGGCGGA (sugars k3 d10 k3, PS), for which the target mRNA inhibition was determined as 9%.

Consider TGGCGGAGCATCAACA (sugars k3 d10 k3, PS), for which the target mRNA inhibition is 37%.

As to TGGCGGATAGATCTGT (sugars k3 d10 k3, PS), the target mRNA inhibition stood at 34%.

Regarding TGGCTAGCAGAGGTTC (sugars k3 d10 k3, PS), the target mRNA inhibition was determined as 56%.

As to TGGGAGTACCCGCAGA (sugars k3 d10 k3, PS), the target mRNA inhibition is 26%.

Take TGGTACGGGATTTCCG (sugars k3 d10 k3, PS): the target mRNA inhibition was found to be 37%.

As to TGTCAAAGAGCTTGCA (sugars k3 d10 k3, PS), the target mRNA inhibition was 11%.

As for TGTCACCTGGCAACCA (sugars k3 d10 k3, PS), the target mRNA inhibition stood at 9%.

TGTGAACATCTCAGAT (sugars k3 d10 k3, PS): the target mRNA inhibition turned out to be 12%.

As to TGTTACCGATGCTTCA (sugars k3 d10 k3, PS), the target mRNA inhibition worked out at 49%.

TTAAAGAGTGGTACAC (sugars k3 d10 k3, PS): the target mRNA inhibition is 6%.

Consider TTAAGAGGCGACTGCT (sugars k3 d10 k3, PS), for which the target mRNA inhibition turned out to be 12%.

Turning to TTACAGCATCTAAGGC (sugars k3 d10 k3, PS), the target mRNA inhibition turned out to be 21%.

Consider TTACTTCCCTGAGAAA (sugars k4 d8 k4, PS), for which the target mRNA inhibition was found to be 14%.

As for TTAGACATTACTAGAT (sugars k3 d10 k3, PS), the target mRNA inhibition came out at 45%.

As for TTATGCATGTTCCTCA (sugars k3 d10 k3, PS), the target mRNA inhibition amounted to 57%.

For TTATTAGACTGACAGC (sugars k3 d10 k3, PS), the target mRNA inhibition worked out at 37%.

For TTATTTGTGGCTCAAC (sugars k3 d10 k3, PS), the target mRNA inhibition worked out at 18%.

For TTCAAAGCGCACCGCA (sugars k3 d10 k3, PS), the target mRNA inhibition was found to be 49%.

In the case of TTCAGAGTCCTGAGAC (sugars k3 d10 k3, PS), the target mRNA inhibition amounted to 46%.

TTCATAGCTAGTTCAT (sugars k3 d10 k3, PS): the target mRNA inhibition came to 44%.

Consider TTCCAGTGGTGGGTCC (sugars k3 d10 k3, PS), for which the target mRNA inhibition came to 29%.

TTCTACAAGGTCTGAG (sugars k3 d10 k3, PS): the target mRNA inhibition was found to be 47%.

Regarding TTCTTATGCATGTTCC (sugars k3 d10 k3, PS), the target mRNA inhibition is 65% and 80%.

Consider TTCTTTATGCGAAGAA (sugars k3 d10 k3, PS), for which the target mRNA inhibition is 9%.

TTGAAGCAACACGGGA (sugars k3 d10 k3, PS): the target mRNA inhibition came to 61%.

TTGCAGAGCAATTTAC (sugars k3 d10 k3, PS): the target mRNA inhibition is 50%.

For the sequence TTGCTTTGCAGAGCAA (sugars k3 d10 k3, PS), the target mRNA inhibition was determined as 28%.

Consider TTGGAAACCAGCCCTT (sugars k3 d10 k3, PS), for which the target mRNA inhibition was 39%.

For the sequence TTGGACAGAAGGGCAA (sugars k3 d10 k3, PS), the target mRNA inhibition was found to be 29%.

In the case of TTGGCCTGCCGGCCTG (sugars k3 d10 k3, PS), the target mRNA inhibition turned out to be 4%.

Take TTTACTAACTGGCTTC (sugars k3 d10 k3, PS): the target mRNA inhibition was 45%.

In the case of TTTACTGTTACCGATG (sugars k3 d10 k3, PS), the target mRNA inhibition is 48%.

In the case of TTTATGAGCTTCCACA (sugars k3 d10 k3, PS), the target mRNA inhibition was 54%.

The same data set, now with this note: ASO, SK-MEL-28, 5 µM.
TGGCTAGCAGAGGTTC (sugars k3 d10 k3, PS): the target mRNA inhibition was 62%.

The data set is the same for the next values; noted with them: ASO, SK-MEL-28, 15 µM.
TGGCTAGCAGAGGTTC (sugars k3 d10 k3, PS): the target mRNA inhibition was 85%.

Values taken from the OligoGym collection.
